# Laboratory results as given in publication PMC6906348 (Therapeutic Advances in Medical Oncology, 2019).
# Tested on: patients with advanced HCC
# Experiment: Safety: adverse events
# Assay type: in vivo, human
# Details: for ALT increased (AE regardless of study drug relationship) / AST increased (AE regardless of study drug relationship) / Abdominal pain (AE regardless of study drug relationship) / Acute kidney injury (AE regardless of study drug relationship) / Anemia (AE regardless of study drug relationship) / Ascites (AE regardless of study drug relationship) / Blood bilirubin increased (AE regardless of study drug relationship) / Blood creatinine increased (AE regardless of study drug relationship) / Constipation (AE regardless of study drug relationship) / Decreased appetite (AE regardless of study drug relationship) / Diarrhea (AE regardless of study drug relationship) / Fatigue (AE regardless of study drug relationship) / Hyperbilirubinemia (AE regardless of study drug relationship) / Hypoalbuminemia (AE regardless of study drug relationship) / Insomnia (AE regardless of study drug relationship) / Leukopenia (AE regardless of study drug relationship) / Nausea (AE regardless of study drug relationship) / Number of patients with at least one event (AE regardless of study drug relationship) / Peripheral edema (AE regardless of study drug relationship) / Platelet count decreased (AE regardless of study drug relationship) / Pyrexia (AE regardless of study drug relationship) / Vomiting (AE regardless of study drug relationship) / Weight decreased (AE regardless of study drug relationship): patients n (%)
# [1] = 300 mg capsule BID n = 9, All grades
# [2] = 300 mg capsule BID n = 9, Grades 3/4
# [3] = 400 mg tablet BID n = 2, All grades
# [4] = 400 mg tablet BID n = 2, Grades 3/4
# [5] = 600 mg capsule BID n = 27, All grades
smiles,measurement,setting,value
CNC(=O)c1ccc(-c2cnc3ncc(Cc4ccc5ncccc5c4)n3n2)cc1F [capmatinib],predefined qualifying adverse events in dose-determining stage,"300 mg BID capsules, first 28 days of treatment, six evaluable patients",No qualifying AEs
same,ALT increased (AE regardless of study drug relationship),[1],0
same,AST increased (AE regardless of study drug relationship),[1],1 (11)
same,Abdominal pain (AE regardless of study drug relationship),[1],2 (22)
same,Acute kidney injury (AE regardless of study drug relationship),[1],2 (22)
same,Anemia (AE regardless of study drug relationship),[1],3 (33)
same,Ascites (AE regardless of study drug relationship),[1],1 (11)
same,Blood bilirubin increased (AE regardless of study drug relationship),[1],2 (22)
same,Blood creatinine increased (AE regardless of study drug relationship),[1],3 (33)
same,Constipation (AE regardless of study drug relationship),[1],2 (22)
same,Decreased appetite (AE regardless of study drug relationship),[1],3 (33)
same,Diarrhea (AE regardless of study drug relationship),[1],5 (56)
same,Fatigue (AE regardless of study drug relationship),[1],3 (33)
same,Hyperbilirubinemia (AE regardless of study drug relationship),[1],0
same,Hypoalbuminemia (AE regardless of study drug relationship),[1],2 (22)
same,Insomnia (AE regardless of study drug relationship),[1],1 (11)
same,Leukopenia (AE regardless of study drug relationship),[1],0
same,Nausea (AE regardless of study drug relationship),[1],6 (67)
same,Number of patients with at least one event (AE regardless of study drug relationship),[1],9 (100)
same,Peripheral edema (AE regardless of study drug relationship),[1],2 (22)
same,Platelet count decreased (AE regardless of study drug relationship),[1],0
same,Pyrexia (AE regardless of study drug relationship),[1],1 (11)
same,Vomiting (AE regardless of study drug relationship),[1],4 (44)
same,Weight decreased (AE regardless of study drug relationship),[1],2 (22)
same,ALT increased (AE regardless of study drug relationship),[2],0
same,AST increased (AE regardless of study drug relationship),[2],1 (11)
same,Abdominal pain (AE regardless of study drug relationship),[2],0
same,Acute kidney injury (AE regardless of study drug relationship),[2],1 (11)
same,Anemia (AE regardless of study drug relationship),[2],2 (22)
same,Ascites (AE regardless of study drug relationship),[2],0
same,Blood bilirubin increased (AE regardless of study drug relationship),[2],1 (11)
same,Blood creatinine increased (AE regardless of study drug relationship),[2],0
same,Constipation (AE regardless of study drug relationship),[2],0
same,Decreased appetite (AE regardless of study drug relationship),[2],0
same,Diarrhea (AE regardless of study drug relationship),[2],1 (11)
same,Fatigue (AE regardless of study drug relationship),[2],0
same,Hyperbilirubinemia (AE regardless of study drug relationship),[2],0
same,Hypoalbuminemia (AE regardless of study drug relationship),[2],1 (11)
same,Insomnia (AE regardless of study drug relationship),[2],0
same,Leukopenia (AE regardless of study drug relationship),[2],0
same,Nausea (AE regardless of study drug relationship),[2],0
same,Number of patients with at least one event (AE regardless of study drug relationship),[2],5 (56)
same,Peripheral edema (AE regardless of study drug relationship),[2],0
same,Platelet count decreased (AE regardless of study drug relationship),[2],0
same,Pyrexia (AE regardless of study drug relationship),[2],0
same,Vomiting (AE regardless of study drug relationship),[2],1 (11)
same,Weight decreased (AE regardless of study drug relationship),[2],0
same,ALT increased (AE regardless of study drug relationship),[3],1 (50)
same,AST increased (AE regardless of study drug relationship),[3],0
same,Abdominal pain (AE regardless of study drug relationship),[3],0
same,Acute kidney injury (AE regardless of study drug relationship),[3],0
same,Anemia (AE regardless of study drug relationship),[3],0
same,Ascites (AE regardless of study drug relationship),[3],0
same,Blood bilirubin increased (AE regardless of study drug relationship),[3],0
same,Blood creatinine increased (AE regardless of study drug relationship),[3],0
same,Constipation (AE regardless of study drug relationship),[3],1 (50)
same,Decreased appetite (AE regardless of study drug relationship),[3],0
same,Diarrhea (AE regardless of study drug relationship),[3],0
same,Fatigue (AE regardless of study drug relationship),[3],1 (50)
same,Hyperbilirubinemia (AE regardless of study drug relationship),[3],0
same,Hypoalbuminemia (AE regardless of study drug relationship),[3],0
same,Insomnia (AE regardless of study drug relationship),[3],1 (50)
same,Leukopenia (AE regardless of study drug relationship),[3],0
same,Nausea (AE regardless of study drug relationship),[3],1 (50)
same,Number of patients with at least one event (AE regardless of study drug relationship),[3],2 (100)
same,Peripheral edema (AE regardless of study drug relationship),[3],0
same,Platelet count decreased (AE regardless of study drug relationship),[3],0
same,Pyrexia (AE regardless of study drug relationship),[3],0
same,Vomiting (AE regardless of study drug relationship),[3],1 (50)
same,Weight decreased (AE regardless of study drug relationship),[3],0
same,ALT increased (AE regardless of study drug relationship),[4],1 (50)
same,AST increased (AE regardless of study drug relationship),[4],0
same,Abdominal pain (AE regardless of study drug relationship),[4],0
same,Acute kidney injury (AE regardless of study drug relationship),[4],0
same,Anemia (AE regardless of study drug relationship),[4],0
same,Ascites (AE regardless of study drug relationship),[4],0
same,Blood bilirubin increased (AE regardless of study drug relationship),[4],0
same,Blood creatinine increased (AE regardless of study drug relationship),[4],0
same,Constipation (AE regardless of study drug relationship),[4],0
same,Decreased appetite (AE regardless of study drug relationship),[4],0
same,Diarrhea (AE regardless of study drug relationship),[4],0
same,Fatigue (AE regardless of study drug relationship),[4],0
same,Hyperbilirubinemia (AE regardless of study drug relationship),[4],0
same,Hypoalbuminemia (AE regardless of study drug relationship),[4],0
same,Insomnia (AE regardless of study drug relationship),[4],0
same,Leukopenia (AE regardless of study drug relationship),[4],0
same,Nausea (AE regardless of study drug relationship),[4],0
same,Number of patients with at least one event (AE regardless of study drug relationship),[4],1 (50)
same,Peripheral edema (AE regardless of study drug relationship),[4],0
same,Platelet count decreased (AE regardless of study drug relationship),[4],0
same,Pyrexia (AE regardless of study drug relationship),[4],0
same,Vomiting (AE regardless of study drug relationship),[4],0
same,Weight decreased (AE regardless of study drug relationship),[4],0
same,ALT increased (AE regardless of study drug relationship),[5],6 (22)
same,AST increased (AE regardless of study drug relationship),[5],11 (41)
